According to patent publication US20230365589A1, “NOVEL AMINE DERIVATIVES” (Sumitomo Pharma Co., Ltd., priority 2020, published 2023):
Where two headings read alike, the source gives them in different places.

Legend:
Format in all cases: biochemical
[1] = molecular target: T1, DYRK1B (Homo sapiens, UniProt Q9Y463); assay: Inhibition test on activity of DYRK family, mobility shift assay (MSA): DYRK1B
T1 construct: purchased Carna Biosciences, Inc. 04-131
Description: [Inhibition Test on Activity of DYRK Family (DYRK1A, DYRK1B, DYRK2, and DYRK3)]
The kinase activity was measured by mobility shift assay (MSA) method using QuickScout Screening Assist™ MSA (commercially available kit manufactured by Carna Biosciences, Inc.). The substrate of the kinase reaction used was an FITC-labeled DYRKtide peptide included in the kit. An assay buffer [20 mM HEPES, 0.01% Triton X-100™, 2 mM dithiothreitol, pH 7.5]was used to create a substrate mixture solution with a substrate (4 μM), MgCl2(20 mM), and ATP (DYRK1A: 100 μM; DYRK1B: 200 μM; DYRK2: 40 μM; and DYRK3: 20 μM). In addition, kinases (DYRK1A: manufactured by Carna Biosciences, Inc., Cat. No. 04-130; DYRK1B: manufactured by Carna Biosciences, Inc., Cat. No. 04-131; DYRK2; manufactured by Carna Biosciences, Inc., Cat. No. 04-132; and DYRK3; manufactured by Carna Biosciences, Inc., Cat. No. 04-133) were diluted with the assay buffer to prepare enzyme solutions (DYRK1A: 0.2 ng/μL; DYRK1B: 0.08 ng/μL; DYRK2: 0.04 ng/μL; and DYRK3: 0.25 ng/μL). The 10 mM solution of the test compound in DMSO was further diluted with DMSO to 10 levels of the concentration (0.00003 mM, 0.0001 mM, 0.0003 mM, 0.001 mM, 0.003 mM, 0.01 mM, 0.03 mM, 0.1 mM, 0.3 mM, and 1 mM), each of which was subjected to 25-fold dilution with the assay buffer to obtain a drug solution (4% DMSO solution). 5 μL of the drug solution or a control solution (4% DMSO-assay buffer), 5 μL of the substrate mixture solution, and 10 μL of the enzyme solution were mixed in the wells of a polypropylene 384-well plate and allowed to react at room temperature for 1 hour, and then the reaction was quenched by adding 60 μL of the termination buffer included in the kit. Subsequently, the quantities of the substrates (S) and the phosphorylated substrate (P) in the reaction solution were measured using LabChip EZ Reader II system (manufactured by Caliper Life Sciences) according to the protocol of the assay kit.
The heights of the peaks of the “substrate” and the “phosphorylated substrate” were expressed as S and P, respectively, and a blank containing the assay buffer instead of the enzyme solution was also measured.
The inhibition rate (%) of the test compound was calculated according to the following equation:
Inhibition rate (%)=(1−(C−A)/(B−A))×100 • wherein, A, B, and C represent P/(P+S) of the blank well, P/(P+S) of the control solution well, and P/(P+S) of the compound-containing well, respectively.
The IC50 value was calculated via a regression analysis of the inhibition rate and the test compound concentration (logarithmic value).
The inhibiting activities of representative compounds of the present invention are shown against DYRK1A, DYRK1B, DYRK2, and DYRK3 in Tables.

[2] = molecular target: T2, DYRK2 (Homo sapiens, UniProt Q92630); assay: Inhibition test on activity of DYRK family, mobility shift assay (MSA): DYRK2
T2 construct: purchased Carna Biosciences, Inc. 04-132
T2 sequence (Q92630 74-601 limits assumed): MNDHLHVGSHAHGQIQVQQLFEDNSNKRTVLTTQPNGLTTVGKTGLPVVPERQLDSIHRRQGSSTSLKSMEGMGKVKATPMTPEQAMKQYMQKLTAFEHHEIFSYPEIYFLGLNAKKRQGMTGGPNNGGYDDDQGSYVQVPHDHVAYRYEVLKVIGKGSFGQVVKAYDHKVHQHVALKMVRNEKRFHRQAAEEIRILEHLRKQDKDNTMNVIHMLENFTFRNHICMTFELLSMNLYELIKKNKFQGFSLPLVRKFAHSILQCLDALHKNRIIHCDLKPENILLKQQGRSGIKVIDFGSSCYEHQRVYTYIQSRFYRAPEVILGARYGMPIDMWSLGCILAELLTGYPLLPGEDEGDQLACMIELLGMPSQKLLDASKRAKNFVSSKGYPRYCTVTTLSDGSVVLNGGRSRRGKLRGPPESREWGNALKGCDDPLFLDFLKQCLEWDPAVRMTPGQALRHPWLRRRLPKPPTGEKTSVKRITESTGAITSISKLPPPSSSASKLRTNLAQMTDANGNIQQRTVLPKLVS
Outline: (§1)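 Mobility-shift readout of FITC-DYRKtide phosphorylation in 20 mM HEPES pH 7.5. The substrate mix held 4 µM peptide, 20 mM MgCl2 and ATP at 100 (1A), 200 (1B), 40 (2) or 20 µM (3). Reaction 1 h at room temperature; IC50 from regression of P/(P+S)-based inhibition vs log concentration.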

[3] = molecular target: T3, DYRK1A (Homo sapiens, UniProt Q13627); assay: Inhibition test on activity of DYRK family, mobility shift assay (MSA): DYRK1A
T3 construct: purchased Carna Biosciences, Inc. 04-130
Outline: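 Mobility shift assay with recombinant DYRK1A (0.2 ng/μL enzyme solution), FITC-DYRKtide substrate (4 μM in substrate mix), 100 μM ATP in substrate mix, HEPES pH 7.5 buffer with MgCl2; 1 h at room temperature. Phosphorylated vs unphosphorylated peptide peaks quantified; IC50 from regression of inhibition rate against log concentration.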

[4] = molecular target: T4, DYRK3 (Homo sapiens, UniProt O43781); assay: Inhibition test on activity of DYRK family, mobility shift assay (MSA): DYRK3
T4 construct: purchased Carna Biosciences, Inc. 04-133
T4 sequence (O43781 1-568 isoform O43781-2): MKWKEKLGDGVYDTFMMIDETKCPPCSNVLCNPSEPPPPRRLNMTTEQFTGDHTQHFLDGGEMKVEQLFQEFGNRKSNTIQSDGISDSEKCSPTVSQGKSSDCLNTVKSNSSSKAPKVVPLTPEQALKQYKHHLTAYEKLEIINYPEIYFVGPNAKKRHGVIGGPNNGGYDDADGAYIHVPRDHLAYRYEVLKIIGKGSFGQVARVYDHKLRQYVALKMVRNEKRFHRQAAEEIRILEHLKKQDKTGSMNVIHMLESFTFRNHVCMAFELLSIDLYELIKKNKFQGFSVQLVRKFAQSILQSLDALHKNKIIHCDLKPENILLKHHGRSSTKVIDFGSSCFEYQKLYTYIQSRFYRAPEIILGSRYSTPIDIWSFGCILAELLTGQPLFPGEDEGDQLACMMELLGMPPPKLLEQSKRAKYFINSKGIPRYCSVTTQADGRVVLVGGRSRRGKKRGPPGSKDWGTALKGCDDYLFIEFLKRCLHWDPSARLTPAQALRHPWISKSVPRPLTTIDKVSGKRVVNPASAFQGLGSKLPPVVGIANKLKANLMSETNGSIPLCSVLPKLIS
Outline: as §1

[5] = MSA, FITC-labeled DYRKtide peptide, ATP 200 μM, read-out: Inhibitory activity DYRK 1B (IC50 class)
[6] = MSA, FITC-labeled DYRKtide peptide, ATP 40 μM, read-out: Inhibitory activity DYRK 2 (IC50 class)
[7] = MSA, FITC-labeled DYRKtide peptide, ATP 100 μM, read-out: Inhibitory activity DYRK 1A (IC50 class)
[8] = MSA, FITC-labeled DYRKtide peptide, ATP 20 μM, read-out: Inhibitory activity DYRK 3 (IC50 class)
[9] = read-out: Inhibitory activity DYRK 1B
[10] = read-out: Inhibitory activity DYRK 2
[11] = read-out: Inhibitory activity DYRK 1A
[12] = read-out: Inhibitory activity DYRK 3

T1 sequence (Q9Y463 whole entry): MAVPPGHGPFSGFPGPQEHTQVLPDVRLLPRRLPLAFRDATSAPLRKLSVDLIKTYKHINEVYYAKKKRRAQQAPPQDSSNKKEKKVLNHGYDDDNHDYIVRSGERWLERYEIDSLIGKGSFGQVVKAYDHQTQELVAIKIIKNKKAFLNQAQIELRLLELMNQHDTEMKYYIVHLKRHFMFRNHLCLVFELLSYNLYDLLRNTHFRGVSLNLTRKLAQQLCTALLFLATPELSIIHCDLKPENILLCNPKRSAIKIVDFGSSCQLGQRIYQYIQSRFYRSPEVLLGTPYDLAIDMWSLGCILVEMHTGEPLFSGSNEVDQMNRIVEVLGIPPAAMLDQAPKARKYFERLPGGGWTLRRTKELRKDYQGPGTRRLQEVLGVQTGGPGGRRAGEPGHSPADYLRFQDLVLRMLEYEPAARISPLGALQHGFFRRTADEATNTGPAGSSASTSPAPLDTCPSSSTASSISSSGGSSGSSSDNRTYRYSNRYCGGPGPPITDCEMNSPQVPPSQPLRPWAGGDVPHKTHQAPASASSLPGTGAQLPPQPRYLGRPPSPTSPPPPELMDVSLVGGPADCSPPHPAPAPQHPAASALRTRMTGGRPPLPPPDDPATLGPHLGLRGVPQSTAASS

IC50 [1, 5] | IC50 [2, 6] | IC50 [3, 7] | IC50 [4, 8] | IC50 [1, 9] | IC50 [2, 10] | IC50 [3, 11] | IC50 [4, 12] | SMILES
< 10 nM | ≥ 1000 nM | < 10 nM | ≥ 1000 nM |  |  |  |  | O=C1N[C@H]2CCN(C3CC3)C[C@H]2N1c1nc2c3c(ccc2s1)OCO3 (single isomer, unassigned) [Example 36]
100 to 1000 nM | ≥ 1000 nM | 100 to 1000 nM | 100 to 1000 nM |  |  |  |  | O=C1NC2CNCC2N1c1nc2c3c(ccc2s1)OCC3 (stereo not shown) [Example 3]
< 10 nM | 100 to 1000 nM | < 10 nM | 100 to 1000 nM |  |  |  |  | C[C@@H]1NC(=O)N(c2nc3c4c(ccc3s2)OCC4)[C@@H]1CN1CCOCC1 [Example 23, (4S,5R)-1-(7,8-dihydrofuro[3,2-e][1,3]benzothiazol-2-yl)-4-methyl-5-[(morpholin-4-yl)methyl]imidazolidin-2-one]
10 to 100 nM | ≥ 1000 nM | 10 to 100 nM | ≥ 1000 nM |  |  |  |  | C[C@H]1NC(=O)N(c2nc3c4c(ccc3s2)OCC4)[C@@H]1CN1CCOCC1 [Example 24, (4R,5R)-1-(7,8-dihydrofuro[3,2-e][1,3]benzothiazol-2-yl)-4-methyl-5-[(morpholin-4-yl)methyl]imidazolidin-2-one]
< 10 nM | 100 to 1000 nM | < 10 nM | 100 to 1000 nM |  |  |  |  | C[C@H]1C[C@@H]2[C@H](CO1)NC(=O)N2c1nc2c3c(ccc2s1)OCC3 [Example 38, (3aR,6S,7aR)-1-(7,8-dihydrofuro[3,2-e][1,3]benzothiazol-2-yl)-6-methylhexahydropyrano[3,4-d]imidazol-2(3H)-one]
< 10 nM | 100 to 1000 nM | < 10 nM | 100 to 1000 nM |  |  |  |  | C[C@H]1C[C@@H]2[C@H](CO1)NC(=O)N2c1nc2c3c(ccc2s1)OCCO3 [Example 39, (3aR,6S,7aR)-1-(7,8-dihydro[1,4]dioxino[2,3-e][1,3]benzothiazol-2-yl)-6-methylhexahydropyrano[3,4-d]imidazol-2(3H)-one]
< 10 nM | 100 to 1000 nM | < 10 nM | 10 to 100 nM |  |  |  |  | O=C1N[C@H]2CO[C@@H](CF)C[C@H]2N1c1nc2c3c(ccc2s1)OCC3 [Example 40, (3aR,6R,7aR)-1-(7,8-dihydrofuro[3,2-e][1,3]benzothiazol-2-yl)-6-(fluoromethyl)hexahydropyrano[3,4-d]imidazol-2(3H)-one]
< 10 nM | 100 to 1000 nM | < 10 nM | 10 to 100 nM |  |  |  |  | O=C1N[C@H]2CO[C@@H](CF)C[C@H]2N1c1nc2c3c(ccc2s1)OCCO3 [Example 41, (3aR,6R,7aR)-1-(7,8-dihydro[1,4]dioxino[2,3-e][1,3]benzothiazol-2-yl)-6-(fluoromethyl)hexahydropyrano[3,4-d]imidazol-2(3H)-one]
< 10 nM | 100 to 1000 nM | < 10 nM | 100 to 1000 nM |  |  |  |  | CC[C@H]1C[C@@H]2[C@H](CO1)NC(=O)N2c1nc2c3c(ccc2s1)OCC3 [Example 42, (3aR,6S,7aR)-1-(7,8-dihydrofuro[3,2-e][1,3]benzothiazol-2-yl)-6-ethylhexahydropyrano[3,4-d]imidazol-2(3H)-one]
< 10 nM | 100 to 1000 nM | < 10 nM | 100 to 1000 nM |  |  |  |  | CC[C@H]1C[C@@H]2[C@H](CO1)NC(=O)N2c1nc2c3c(ccc2s1)OCCO3 [Example 43, (3aR,6S,7aR)-1-(7,8-dihydro[1,4]dioxino[2,3-e][1,3]benzothiazol-2-yl)-6-ethylhexahydropyrano[3,4-d]imidazol-2(3H)-one]
 |  |  |  | 10 to 100 nM | 10 to 100 nM | 10 to 100 nM | 10 to 100 nM | O=C1N[C@H]2COC[C@H]2N1c1nc2c3c(ccc2s1)OCC3 [Example 119]
 |  |  |  | < 10 nM | 100 to 1000 nM | < 10 nM | 100 to 1000 nM | O=C1N[C@H]2COCC[C@H]2N1c1nc2c3c(ccc2s1)OCC3 [Example 122, (3aR,7aR)-1-(7,8-dihydrofuro[3,2-e][1,3]benzothiazol-2-yl)hexahydropyrano[3,4-d]imidazol-2(3H)-one]
< 10 nM | 100 to 1000 nM | < 10 nM | 100 to 1000 nM |  |  |  |  | CC[C@H]1C[C@@H]2[C@H](CO1)NC(=O)N2c1nc2c3c(ccc2s1)OCO3 [Example 138, (3aR,6S,7aR)-1-(2H-[1,3]dioxolo[4,5-e][1,3]benzothiazol-7-yl)-6-ethylhexahydropyrano[3,4-d]imidazol-2(3H)-one]
< 10 nM | 100 to 1000 nM | < 10 nM | 10 to 100 nM |  |  |  |  | C[C@H]1C[C@@H]2[C@H](CO1)NC(=O)N2c1nc2c3c(ccc2s1)OCO3 [Example 139, (3aR,6S,7aR)-1-(2H-[1,3]dioxolo[4,5-e][1,3]benzothiazol-7-yl]-6-methylhexahydropyrano[3,4-d]imidazol-2(3H)-one]
< 10 nM | 10 to 100 nM | < 10 nM | 10 to 100 nM |  |  |  |  | O=C1N[C@H]2CO[C@@H](CF)C[C@H]2N1c1nc2c3c(ccc2s1)OCO3 [Example 140, (3aR,6R,7aR)-1-(2H-[1,3]dioxolo[4,5-e][1,3]benzothiazol-7-yl]-6-(fluoromethyl)hexahydropyrano[3,4-d]imidazol-2(3H)-one]
100 to 1000 nM | ≥ 1000 nM | 100 to 1000 nM | ≥ 1000 nM |  |  |  |  | O=C1N[C@@H]2[C@@H](CO)OC[C@@H]2N1c1nc2c3c(ccc2s1)OCC3 [Example 158]
